Reference: PMC3200116 (Journal of medicinal chemistry, 2011)
Where a name gives a salt, the structure may show the parent alone.

What was measured:
α4β2 nACh receptors [1] = target: T1, α4β2 nACh receptors (Homo sapiens, UniProt P17787+P43681); assay type: cell-based; settings: for positive allosteric modulation (potentiation of ACh), in words: highest concentrations evaluated; for potency as positive allosteric modulator relative to 1: compared with 1
α4β2 nACh receptors [2] = target: T1, α4β2 nACh receptors; assay: Antagonism; assay type: cell-based
human α7 nACh receptors = human α7 nACh receptors (Homo sapiens, UniProt P36544); settings: at concentrations slightly higher than those potentiating at α4β2; cited from earlier work
α7 nACh receptors = settings: cited from earlier work
α4β4 nACh receptors = settings: Xenopus oocytes; cited from earlier work
α3β4 nACh receptors = settings: Xenopus oocytes; cited from earlier work
α4β2 nACh receptors [3] = target: T1, α4β2 nACh receptors; settings: potentiation of ACh at α4β2, cited from earlier work
α3β2 nACh receptors = settings: Xenopus oocytes; cited from earlier work

T1 sequence (P43681 27-627): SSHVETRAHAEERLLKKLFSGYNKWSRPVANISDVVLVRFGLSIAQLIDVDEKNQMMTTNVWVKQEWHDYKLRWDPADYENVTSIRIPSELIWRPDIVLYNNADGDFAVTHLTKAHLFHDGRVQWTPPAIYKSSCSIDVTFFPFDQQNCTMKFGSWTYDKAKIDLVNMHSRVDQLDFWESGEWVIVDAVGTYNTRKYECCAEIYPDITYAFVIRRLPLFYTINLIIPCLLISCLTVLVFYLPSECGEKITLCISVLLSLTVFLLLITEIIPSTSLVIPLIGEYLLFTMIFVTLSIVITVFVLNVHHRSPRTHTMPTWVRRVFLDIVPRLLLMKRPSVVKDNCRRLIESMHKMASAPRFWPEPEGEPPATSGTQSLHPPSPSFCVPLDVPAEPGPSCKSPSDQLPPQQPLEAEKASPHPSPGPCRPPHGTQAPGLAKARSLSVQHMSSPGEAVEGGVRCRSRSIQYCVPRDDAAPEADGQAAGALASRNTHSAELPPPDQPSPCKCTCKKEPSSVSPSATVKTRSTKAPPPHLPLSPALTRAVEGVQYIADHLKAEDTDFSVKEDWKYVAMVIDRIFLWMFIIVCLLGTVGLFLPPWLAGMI
T1 sequence (P17787 26-502): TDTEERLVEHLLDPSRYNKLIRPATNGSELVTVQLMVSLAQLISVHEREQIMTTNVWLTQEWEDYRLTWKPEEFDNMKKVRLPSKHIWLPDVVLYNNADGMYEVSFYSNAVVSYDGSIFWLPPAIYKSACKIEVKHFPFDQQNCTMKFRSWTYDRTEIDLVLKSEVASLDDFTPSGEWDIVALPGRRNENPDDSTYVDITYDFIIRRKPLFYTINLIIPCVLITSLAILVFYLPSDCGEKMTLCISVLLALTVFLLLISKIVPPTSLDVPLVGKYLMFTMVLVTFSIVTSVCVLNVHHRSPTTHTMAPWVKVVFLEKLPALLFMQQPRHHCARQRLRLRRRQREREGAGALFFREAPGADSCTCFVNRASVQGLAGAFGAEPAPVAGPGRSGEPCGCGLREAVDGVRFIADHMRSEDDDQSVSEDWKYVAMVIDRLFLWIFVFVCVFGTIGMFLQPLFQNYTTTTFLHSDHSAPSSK
Sequence of human α7 nACh receptors (P36544 23-502): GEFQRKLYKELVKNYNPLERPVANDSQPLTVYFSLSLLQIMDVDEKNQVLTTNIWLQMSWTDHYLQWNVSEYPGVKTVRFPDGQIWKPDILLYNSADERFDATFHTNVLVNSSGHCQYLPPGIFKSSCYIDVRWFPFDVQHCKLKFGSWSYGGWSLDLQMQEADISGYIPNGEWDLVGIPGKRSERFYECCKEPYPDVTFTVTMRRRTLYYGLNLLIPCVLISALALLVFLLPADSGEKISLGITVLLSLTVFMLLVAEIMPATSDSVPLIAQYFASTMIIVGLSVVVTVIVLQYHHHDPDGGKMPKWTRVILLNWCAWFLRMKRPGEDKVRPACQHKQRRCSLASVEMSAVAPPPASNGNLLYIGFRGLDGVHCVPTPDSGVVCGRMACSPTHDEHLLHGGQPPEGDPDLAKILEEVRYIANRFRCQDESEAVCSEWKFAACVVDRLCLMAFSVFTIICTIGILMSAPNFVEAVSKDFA

CNCCc1c(C(C)(C)C)[nH]c2ccccc12 [Compound 11, N-Methyl-2-(tert-butyl)tryptamine Hydrogen Oxalate]
positive allosteric modulation (potentiation of ACh), in words (α4β2 nACh receptors [1]): active

CCCc1[nH]c2cc(Br)ccc2c1CCNC [Compound 4, N-Methyl-6-bromo-2-n-propyltryptamine Oxalate]
IC50 (α4β2 nACh receptors [2]): 72.4 µM

CCC(C)(C)c1[nH]c2cc(Br)ccc2c1CCNC [Compound 6, N-Methyl-6-bromo-2-(1,1-dimethylpropyl)tryptamine Oxalate]
potency as positive allosteric modulator relative to 1 (α4β2 nACh receptors [1]): at least as potent, if not twice as potent, as 1

C=CC(C)(C)c1[nH]c2cc(Br)ccc2c1CCN [Compound 2, 6-Bromo-2-(1,1-dimethylallyl)tryptamine Hydrochloride]
potency as positive allosteric modulator relative to 1 (α4β2 nACh receptors [1]): about half as potent as 1

CCC(C)c1[nH]c2ccccc2c1CCNC (stereo not drawn) [Compound 9, N-Methyl-2-sec-butyltryptamine Oxalate]
positive allosteric modulation (potentiation of ACh), in words (α4β2 nACh receptors [1]): inactive | IC50 (α4β2 nACh receptors [2]): 16.6 µM

CNCCc1c[nH]c2cc(Br)ccc12 [Compound 3, N-Methyl-6-bromotryptamine]
positive allosteric modulation (potentiation of ACh), in words (α4β2 nACh receptors [1]): failed to enhance the action of ACh | IC50 (α4β2 nACh receptors [2]): 39.8 µM

CNCCc1c(C(C)C)[nH]c2ccccc12 [Compound 12, N-Methyl-2-isopropyltryptamine Hydrochloride]
positive allosteric modulation (potentiation of ACh), in words (α4β2 nACh receptors [1]): inactive

C=CC(C)(C)c1[nH]c2cc(Br)ccc2c1CCNC.Cl [Compound 1, des-formylflustrabromine]
inhibition of the action of ACh in an α7 preparation (human α7 nACh receptors): inhibited | potentiation of the actions of ACh at α7 (α7 nACh receptors; Xenopus oocytes): failed to potentiate | potentiation of the action of ACh in an α7 preparation (α7 nACh receptors): failed to potentiate | potentiation of the actions of ACh at α4β4 (α4β4 nACh receptors): failed to potentiate | potentiation of the actions of ACh at α3β4 (α3β4 nACh receptors): failed to potentiate | pEC50 originally reported (α4β2 nACh receptors [3]): ca. 6.8 | EC50 (α4β2 nACh receptors [3]; read-out: EC50 originally reported): 0.12 µM | potentiation of the actions of ACh at α3β2 (α3β2 nACh receptors): failed to potentiate

CCCc1[nH]c2ccccc2c1CCNC [Compound 10, N-Methyl-2-(n-propyl)tryptamine Oxalate]
positive allosteric modulation (potentiation of ACh), in words (α4β2 nACh receptors [1]): inactivity | IC50 (α4β2 nACh receptors [2]): 18.6 µM

C=CCc1[nH]c2cc(Br)ccc2c1CCNC [Compound 5, N-Methyl-2-allyl-6-bromotryptamine Oxalate]
positive allosteric modulation (potentiation of ACh), in words (α4β2 nACh receptors [1]): lacked potentiating activity | IC50 (α4β2 nACh receptors [2]): 3.55 µM
